In patent US20100016225A1, “CONJUGATES COMPRISED OF POLYMER AND HIV gp-41-DERIVED PEPTIDES AND THEIR USE IN THERAPY” (Trimeris, Inc., priority 2002, published 2010):

How the values were obtained:
[1] = tested on: HIV-1 T20R; assay type: cell-based; conditions: T20-resistant clinical isolate, Table 2
Source text: (§1) The infectivity assays score for reduction of infectious virus titer employing the indicator cell lines MAGI or the CCR5 expressing derivative cMAGI. Both cell lines exploit the ability of HIV-1 that to transactivate the expression of a β-galactosidase reporter gene driven by the HIV-LTR. The β-gal reporter has been modified to localize in the nucleus and can be detected with the X-gal substrate as intense nuclear staining within a few days of infection. The number of stained nuclei can thus be interpreted as equal to the number of infectious virions in the challenge inoculum if there is only one round of infection prior to staining. […] The peptide (in the respective dilution) was added to the CMAGI or MAGI cells, followed by the virus inocula; and 24 hours later, an inhibitor of infection and cell-cell fusion (e.g., T20) was added to prevent secondary rounds of HIV infection and cell-cell virus spread. The cells were cultured for 2 more days, and then fixed and stained with the X-gal substrate to detect HIV-infected cells. The number of infected cells for each control and peptide dilution was determined with the CCD-imager, and then the IC50 and IC90 were calculated (expressed in μg/ml).
In this first example of antiviral potency, two clinical isolates of HIV were obtained from the same HIV-infected individual.
Using the methods taught in Example 1 herein, additional conjugates were produced by varying the polymer, the terminus of the synthetic peptide which is operably bound to polymer, and the reactive functionality used for operably binding synthetic peptide to polymer. Two molecules of synthetic peptide (e.g. SEQ ID NO:4) were operably bound to polymer.

[2] = tested on: 3′GIV/CEM4; assay type: cell-based, HIV; conditions: virus 3′GIV/CEM4
Source text: (§2) Illustrated in this example is the unexpected result of antiviral potency using the conjugates according to the present invention. […] In determining antiviral activity (e.g., one measure being the ability to inhibit transmission of HIV to a target cell) of the conjugates according to the present invention, used was an in vitro assay which has been shown, by data generated using synthetic peptides derived from either of the HR regions of HIV gp41, to be predictive of antiviral activity observed in vivo.
(§3) The infectivity assays score for reduction of infectious virus titer employing the indicator cell lines MAGI or the CCR5 expressing derivative cMAGI. Both cell lines exploit the ability of HIV-1 that to transactivate the expression of a β-galactosidase reporter gene driven by the HIV-LTR. The β-gal reporter has been modified to localize in the nucleus and can be detected with the X-gal substrate as intense nuclear staining within a few days of infection. The number of stained nuclei can thus be interpreted as equal to the number of infectious virions in the challenge inoculum if there is only one round of infection prior to staining. Infected cells are enumerated using a CCD-imager and both primary and laboratory adapted isolates show a linear relationship between virus input and the number of infected cells visualized by the imager. […] Peptides tested for antiviral activity were diluted into various concentrations, and tested in duplicate or triplicate against an HIV inoculum adjusted to yield approximately 1500-2000 infected cells/well of a 48 well microtiter plate. The peptide (in the respective dilution) was added to the CMAGI or MAGI cells, followed by the virus inocula; and 24 hours later, an inhibitor of infection and cell-cell fusion (e.g., T20) was added to prevent secondary rounds of HIV infection and cell-cell virus spread. The cells were cultured for 2 more days, and then fixed and stained with the X-gal substrate to detect HIV-infected cells. The number of infected cells for each control and peptide dilution was determined with the CCD-imager, and then the IC50 and IC90 were calculated (expressed in μg/ml).
(§4) With reference to Table 4, IC50 and IC90 are expressed in μg/ml.

[3] = tested on: SIM/CEM4; assay type: cell-based, HIV; conditions: virus SIM/CEM4
Source text: as §2, §3, §4

[4] = tested on: IIIB/CEM4; assay type: cell-based, HIV; conditions: virus IIIB/CEM4
Source text: as §2, §3, §4

[5] = tested on: HIV; conditions: typical range in words; cited from earlier work
[6] = tested on: HIV-1 T20S; assay type: cell-based; conditions: T20-sensitive clinical isolate, Table 2
Source text: as §2, §3
In this first example of antiviral potency, two clinical isolates of HIV were obtained from the same HIV-infected individual. A first isolate, hereby designated “HIV-1 T20S” for ease of description, was sensitive to the antiviral effect of T20 (SEQ ID NO:4) both in vitro and in vivo. […] The results, with the IC50 expressed in ng/ml, are illustrated in Table 2.
Using the methods taught in Example 1 herein, additional conjugates were produced by varying the polymer, the terminus of the synthetic peptide which is operably bound to polymer, and the reactive functionality used for operably binding synthetic peptide to polymer. Two molecules of synthetic peptide (e.g. SEQ ID NO:4) were operably bound to polymer. Such conjugates were then tested for antiviral activity against HIV isolates IIIB, and HIV-1 T20S & HIV-1 T20R (see Table 2 for HIV resistant strains), with the antiviral activity (IC50) expressed in μg/ml. The results for the various conjugates (Table 5, A-Q), terminus of synthetic peptide used for operably binding polymer (Table 5, C-terminus denoted as “C”, N-terminus denoted as “N”) or if an internal lysine was used (Table 5, “Lys 18”, signifying lysine as amino acid residue 18 in the amino acid sequence of the synthetic peptide), antiviral activity (IC50) against HIV-1 strain IIIB (Table 5, “IIIB”), antiviral activity (IC50) against HIV-1 T20S (Table 5, “T20S”) and antiviral activity (IC50) against HIV-1 T20R (Table 5, “T20R”), are illustrated in Table 5.

[7] = tested on: HIV-1 T20R-B; assay type: cell-based; conditions: virus HIV-1 T20R-B
Source text: as §1

[8] = tested on: HIV-1 T20R-D; assay type: cell-based; conditions: virus HIV-1 T20R-D
Source text: as §2, §3
(§5) IC50 and IC90 are expressed in μg/ml.

[9] = tested on: HIV-1 T20S-D; assay type: cell-based; conditions: virus HIV-1 T20S-D
Source text: as §2, §3, §5

[10] = tested on: HIV-1 T20S-B; assay type: cell-based; conditions: virus HIV-1 T20S-B
Source text: as §2, §3, §5

[11] = tested on: HIV-1 T20S-A; assay type: cell-based; conditions: virus HIV-1 T20S-A
Source text: as §2, §3, §5

[12] = tested on: HIV-1 T20R-C; assay type: cell-based; conditions: virus HIV-1 T20R-C
Source text: as §2, §3, §5

[13] = tested on: HIV-1 T20R-A; assay type: cell-based; conditions: virus HIV-1 T20R-A
Source text: as §2, §3, §5

[14] = tested on: HIV-1 T20S-C; assay type: cell-based; conditions: virus HIV-1 T20S-C
Source text: as §2, §3, §5

[15] = Bioavailability (circulating half-life) in cannulated mice, plasma fluorescence HPLC; assay type: in vivo; conditions: mouse, 10 mg/kg
Procedure: It is important to note that standard animal model for determining bioavailability has been correlated with the bioavailability of synthetic peptide in vivo in humans (as described in more detail in U.S. Pat. No. 6,258,782). […] A sample of blood was removed at predetermined time intervals (0, 15, 30 min and 1, 2, 4, 6, and 8 hours) and added to collection tubes containing anticoagulant (EDTA). Plasma was harvested from each of the collection tubes, and then subjected to analysis by fluorescence high pressure liquid chromatography (HPLC). In addition to sample dilutions, serial dilutions of dosing solution were performed in buffer as well as in plasma, and used to generate a standard curve relating peak area to known concentration of peptide. This curve was then used to calculate concentration of peptide in plasma taking into account all dilutions performed and quantity injected onto column.

Substance: enfuvirtide
- HIV-1 T20R: IC50 [1]: 1,211 ng/ml
- IC50 [2]: 0.008 µg/mL
- IC90 [2]: 0.050 µg/mL
- IC50 [3]: 0.584 µg/mL
- IC90 [3]: 3.398 µg/mL
- IC50 [4]: 0.007 µg/mL
- IC90 [4]: 0.052 µg/mL
- 50% effective concentration values (EC50), blocked infection of T cells [5]: in the ng/ml range
- HIV-1 T20S: IC50 [6]: 0.01 µg/mL
- IC50 [7]: 1.898 µg/mL
- IC90 [7]: 7.179 µg/mL
- IC50 [8]: 2.039 µg/mL
- IC90 [8]: >5 µg/mL
- IC50 [9]: 0.018 µg/mL
- IC90 [9]: 0.208 µg/mL
- IC50 [10]: 0.029 µg/mL
- IC90 [10]: 0.117 µg/mL
- IC50 [11]: 0.006 µg/mL
- IC90 [11]: 0.078 µg/mL
- IC50 [12]: 1.544 µg/mL
- IC90 [12]: 6.285 µg/mL
- IC50 [13]: >5 µg/mL
- IC90 [13]: >5 µg/mL
- IC50 [14]: 0.006 µg/mL
- IC90 [14]: 0.073 µg/mL
- half-life ([15]; cannulated mice, intravenous, read-out: t½ (converted)): 1.6 h
- AUC ([15]; iv): 158 µg·h/mL
